Measured values from PubChem BioAssay AID2051 (NMMLSC, 2009).
Active and inactive are the calls of the source.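 The calls were made as follows: active = EC50 of 30 microM or lower and a span of response of at least a set limit; inactive = the rest.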

Molecular target: Ras-related C3 botulinum toxin substrate 1 (Homo sapiens) (UniProt P63000)
Test: activated mutant Rac1 GTP binding inhibitors, SAR follow-up, biochemical, oxadiazole analogs, multiplex bead flow cytometry (AID 2051)
Details: Bead-based flow cytometry, Bodipy-FL-GTP binding to GST-Rac1; for Ki: measured here: Ki calculated from EC50

## Cc1ccc(C)c(N2CCN(C(=O)CCc3nc(-c4ccccc4Cl)no3)CC2)c1
  EC50: 1370 nM
  Ki: 120 nM

## COc1ccc(-c2noc(CCCCC(=O)N3CCN(c4cc(C)ccc4C)CC3)n2)cc1
  EC50: inactive
  Ki: 1060 nM

## Cc1ccc(-c2noc(CCC(=O)N3CCN(c4cc(C)ccc4C)CC3)n2)cc1
  EC50: 3320 nM
  Ki: 300 nM

## COc1ccc(-c2ccc(CCC(=O)N3CCN(c4cc(C)ccc4C)CC3)s2)cc1
  EC50: inactive

## COc1ccc(-c2noc(CCC(=O)N3CCN(c4ccc(C(F)(F)F)cc4)CC3)n2)cc1
  EC50: inactive

## COc1ccc(-c2noc(CCC(=O)N3CCN(c4cccc(F)c4)CC3)n2)cc1
  EC50: inactive

## COc1ccc(-c2noc(CCC(=O)N3CCN(c4ccccc4)CC3)n2)cc1
  EC50: inactive
  Ki: 160 nM

## COc1ccc(-c2noc(CCC(=O)N3CCN(c4cccc(Br)c4)CC3)n2)cc1
  EC50: 20600 nM
  Ki: 1870 nM

## COc1ccc(-c2noc(CCC(=O)N3CCN(c4cccc(OC)c4)CC3)n2)cc1
  EC50: inactive
  Ki: 890 nM

## Cc1ccc(C)c(N2CCN(C(=O)CCc3nc(-c4ccc(F)cc4)no3)CC2)c1
  EC50: 1370 nM
  Ki: 120 nM

## COc1ccc(-c2ccc(CCC(=O)N3CCN(c4cc(C)ccc4C)CC3)[nH]2)cc1
  EC50: inactive
  Ki: 480 nM

## COc1ccc(-c2noc(CCC(=O)N3CCN(c4ccc(Br)cc4)CC3)n2)cc1
  EC50: inactive
  Ki: 300 nM

## Cc1ccc(C)c(N2CCN(C(=O)CCc3nc(-c4ccccc4C(F)(F)F)no3)CC2)c1
  EC50: 2700 nM
  Ki: 250 nM

## Cc1ccc(C)c(N2CCN(C(=O)CCc3nc(-c4cccc(Cl)c4)no3)CC2)c1
  EC50: 5120 nM
  Ki: 470 nM

## Cc1ccc(C)c(N2CCN(C(=O)CCc3nc(-c4ccccc4)no3)CC2)c1
  EC50: 2790 nM
  Ki: 250 nM

## COc1ccc(-c2cc(CCC(=O)N3CCN(c4cc(C)ccc4C)CC3)[nH]n2)cc1
  EC50: inactive

## COc1ccc(-c2coc(CCC(=O)N3CCN(c4cc(C)ccc4C)CC3)n2)cc1
  EC50: 2840 nM
  Ki: 260 nM

## COc1ccc(-c2noc(CCC(=O)N3CCN(c4ccccc4F)CC3)n2)cc1
  EC50: 2510 nM
  Ki: 230 nM

## Cc1cccc(-c2noc(CCC(=O)N3CCN(c4cc(C)ccc4C)CC3)n2)c1
  EC50: 1920 nM
  Ki: 170 nM

## COc1cccc(-c2noc(CCC(=O)N3CCN(c4cc(C)ccc4C)CC3)n2)c1
  EC50: 5780 nM
  Ki: 530 nM

## Cc1ccc(C)c(N2CCN(C(=O)CCc3nc(-c4ccccc4F)no3)CC2)c1
  EC50: 2250 nM
  Ki: 200 nM

## COc1ccc(-c2noc(CCC(=O)N3CCN(c4ccccc4C(F)(F)F)CC3)n2)cc1
  EC50: 2010 nM
  Ki: 180 nM

## Cc1ccc(C)c(N2CCN(C(=O)CCc3nc(-c4cccc(Br)c4)no3)CC2)c1
  EC50: 2140 nM
  Ki: 190 nM

## Cc1ccc(C)c(N2CCN(C(=O)CCc3nc(-c4ccc(Br)cc4)no3)CC2)c1
  EC50: 3020 nM
  Ki: 270 nM

## Cc1ccc(C)c(N2CCN(C(=O)CCc3nc(-c4ccc(C(F)(F)F)cc4)no3)CC2)c1
  EC50: 1950 nM
  Ki: 180 nM

## Cc1ccc(C)c(N2CCN(C(=O)CCc3nc(-c4ccccc4C)no3)CC2)c1
  EC50: 2010 nM
  Ki: 180 nM

## COc1ccc(-c2noc(CCC(=O)N3CCN(c4ccccc4Cl)CC3)n2)cc1
  EC50: 4940 nM
  Ki: 450 nM

## COc1ccc(-c2cc(CCC(=O)N3CCN(c4cc(C)ccc4C)CC3)on2)cc1
  EC50: inactive
  Ki: 190 nM

## Cc1ccc(C)c(N2CCN(C(=O)CCc3nc(-c4cccc(F)c4)no3)CC2)c1
  EC50: 2550 nM
  Ki: 230 nM

## COc1ccc(-c2noc(CCC(=O)N3CCN(c4cccc(C)c4C)CC3)n2)cc1
  EC50: 1540 nM
  Ki: 140 nM

## COc1ccc(-c2noc(CCC(=O)N3CCN(c4ccc(F)cc4)CC3)n2)cc1
  EC50: inactive
  Ki: 80 nM

## Cc1ccc(C)c(N2CCN(C(=O)CCc3nc(-c4ccccc4Br)no3)CC2)c1
  EC50: 2150 nM
  Ki: 200 nM

## COc1ccccc1-c1noc(CCC(=O)N2CCN(c3cc(C)ccc3C)CC2)n1
  EC50: inactive
  Ki: 480 nM

## COc1ccc(-c2ccc(CCC(=O)N3CCN(c4cc(C)ccc4C)CC3)o2)cc1
  EC50: inactive

## COc1ccc(-c2noc(CCC(=O)N3CCN(c4cc(C)ccc4C)CC3)n2)cc1
  EC50: 5900 nM
  Ki: 540 nM

## COc1ccc(-c2noc(CCC(=O)N3CCN(c4ccc(Cl)cc4)CC3)n2)cc1
  EC50: inactive

## COc1ccc(-c2noc(CCC(=O)N3CCN(c4cccc(C(F)(F)F)c4)CC3)n2)cc1
  EC50: inactive
  Ki: 830 nM

## COc1ccc(-c2noc(CCC(=O)N3CCN(c4ccccc4Br)CC3)n2)cc1
  EC50: 2240 nM
  Ki: 200 nM

## COc1ccc(-c2noc(CCC(=O)N3CCC(c4cc(C)ccc4C)CC3)n2)cc1
  EC50: inactive
  Ki: 230 nM

## COc1ccc(-c2noc(CCC(=O)N3CCN(c4cccc(C)c4)CC3)n2)cc1
  EC50: inactive

## COc1ccc(-c2noc(CCC(=O)N3CCN(c4cccc(Cl)c4)CC3)n2)cc1
  EC50: 7340 nM
  Ki: 670 nM

## COc1ccc(-c2noc(CCC(=O)N3CCN(c4ccccc4C)CC3)n2)cc1
  EC50: 1480 nM
  Ki: 130 nM

## COc1ccc(-c2noc(CCC(=O)N3CCN(c4ccc(OC)cc4)CC3)n2)cc1
  EC50: inactive
  Ki: 60 nM

## COc1ccc(-c2cccc(CCC(=O)N3CCN(c4cc(C)ccc4C)CC3)c2)cc1
  EC50: inactive
  Ki: 910 nM

## COc1ccc(-c2noc(CCC(=O)N3CCN(c4ccccc4OC)CC3)n2)cc1
  EC50: 3800 nM
  Ki: 350 nM

## Cc1ccc(C)c(N2CCN(C(=O)CCc3nc(-c4cccc(C(F)(F)F)c4)no3)CC2)c1
  EC50: 3380 nM
  Ki: 310 nM

## Cc1ccc(C)c(N2CCN(C(=O)CCc3nc(-c4ccc(Cl)cc4)no3)CC2)c1
  EC50: 2250 nM
  Ki: 200 nM

## COc1ccc(-c2noc(CCC(=O)N3CCN(c4ccc(C)cc4)CC3)n2)cc1
  EC50: inactive
  Ki: 140 nM

## COc1ccc(-c2noc(CCCC(=O)N3CCN(c4cc(C)ccc4C)CC3)n2)cc1
  EC50: 8220 nM
  Ki: 750 nM

## COc1ccc(-c2noc(CC(=O)N3CCN(c4cc(C)ccc4C)CC3)n2)cc1
  EC50: inactive
  Ki: 1320 nM

## Cc1ccc(C)c(N2CCN(C(=O)CCc3nc(-c4ccc(N(C)C)cc4)no3)CC2)c1
  EC50: 4100 nM
  Ki: 370 nM
